From ChEMBL document CHEMBL1201862, “PubChem BioAssay data set” (2004)
Activity calls are given as the source filed them.

Key:
Protein skinhead-1 = target: T1, Protein skinhead-1 (Caenorhabditis elegans, UniProt P34707); assay type: functional
T1 sequence (P34707 whole entry): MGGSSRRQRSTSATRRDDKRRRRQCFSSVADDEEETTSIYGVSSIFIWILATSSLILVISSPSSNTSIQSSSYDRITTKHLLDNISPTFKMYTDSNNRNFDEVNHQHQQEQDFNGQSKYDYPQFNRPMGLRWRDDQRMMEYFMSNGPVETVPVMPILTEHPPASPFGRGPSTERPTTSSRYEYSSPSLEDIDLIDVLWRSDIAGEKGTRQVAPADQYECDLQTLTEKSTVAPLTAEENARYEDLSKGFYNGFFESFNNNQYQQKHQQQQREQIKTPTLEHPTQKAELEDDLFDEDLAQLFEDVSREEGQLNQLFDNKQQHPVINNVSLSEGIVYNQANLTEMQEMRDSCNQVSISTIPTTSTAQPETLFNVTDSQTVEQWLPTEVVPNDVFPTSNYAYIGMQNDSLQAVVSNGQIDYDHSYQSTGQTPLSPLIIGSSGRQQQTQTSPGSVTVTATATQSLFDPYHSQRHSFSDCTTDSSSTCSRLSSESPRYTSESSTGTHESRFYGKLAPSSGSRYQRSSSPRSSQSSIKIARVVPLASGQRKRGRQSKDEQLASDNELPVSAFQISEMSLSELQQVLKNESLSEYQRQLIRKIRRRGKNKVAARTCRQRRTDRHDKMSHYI

[1] = target: T2, Long-chain-fatty-acid--AMP ligase FadD28 (Mycobacterium tuberculosis, UniProt P9WQ59); experiment: Fluorescence polarization aasay to screen for inhibitors that compete for the binding of FadD28 to a bisubstrate Measured in Biochemical System Using Plate Reader - 2147-01_Inhibitor_Dose_CherryPick_Activity.; assay type: functional, Mycobacterium tuberculosis H37Rv
T2 sequence (P9WQ59 whole entry): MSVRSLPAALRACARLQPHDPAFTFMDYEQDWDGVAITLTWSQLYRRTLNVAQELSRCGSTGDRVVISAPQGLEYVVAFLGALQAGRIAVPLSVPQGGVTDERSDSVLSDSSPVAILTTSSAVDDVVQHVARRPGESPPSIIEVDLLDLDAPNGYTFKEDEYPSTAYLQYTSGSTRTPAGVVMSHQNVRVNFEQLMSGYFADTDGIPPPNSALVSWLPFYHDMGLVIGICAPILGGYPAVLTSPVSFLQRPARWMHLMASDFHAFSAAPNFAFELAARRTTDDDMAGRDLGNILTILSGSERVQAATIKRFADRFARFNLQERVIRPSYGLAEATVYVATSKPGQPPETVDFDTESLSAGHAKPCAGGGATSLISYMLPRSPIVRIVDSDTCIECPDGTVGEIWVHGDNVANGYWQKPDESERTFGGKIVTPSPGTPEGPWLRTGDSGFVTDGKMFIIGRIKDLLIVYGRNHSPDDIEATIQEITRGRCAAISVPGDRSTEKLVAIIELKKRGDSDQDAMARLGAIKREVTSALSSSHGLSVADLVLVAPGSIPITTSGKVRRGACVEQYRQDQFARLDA

[2] = target: T3, Corticotropin-releasing factor receptor 2/Corticotropin-releasing factor-binding protein (Homo sapiens, UniProt P24387+Q13324); experiment: Dose Response confirmation of uHTS hits for small molecule antagonists of the CRF-binding protein and CRF-R2 receptor complex.; assay type: functional; conditions: read-out: IC50_Mean
T3 sequence (Q13324 whole entry): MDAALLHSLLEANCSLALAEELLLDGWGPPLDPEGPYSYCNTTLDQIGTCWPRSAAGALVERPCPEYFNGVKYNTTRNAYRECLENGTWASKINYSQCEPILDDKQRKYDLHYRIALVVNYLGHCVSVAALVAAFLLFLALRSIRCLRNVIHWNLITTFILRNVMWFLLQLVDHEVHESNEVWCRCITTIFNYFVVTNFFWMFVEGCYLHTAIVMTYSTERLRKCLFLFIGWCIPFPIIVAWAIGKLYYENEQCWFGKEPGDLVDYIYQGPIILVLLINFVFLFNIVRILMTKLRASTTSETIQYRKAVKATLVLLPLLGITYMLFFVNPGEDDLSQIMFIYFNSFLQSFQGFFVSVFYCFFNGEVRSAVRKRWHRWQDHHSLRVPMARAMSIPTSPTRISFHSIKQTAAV
T3 sequence (P24387 whole entry): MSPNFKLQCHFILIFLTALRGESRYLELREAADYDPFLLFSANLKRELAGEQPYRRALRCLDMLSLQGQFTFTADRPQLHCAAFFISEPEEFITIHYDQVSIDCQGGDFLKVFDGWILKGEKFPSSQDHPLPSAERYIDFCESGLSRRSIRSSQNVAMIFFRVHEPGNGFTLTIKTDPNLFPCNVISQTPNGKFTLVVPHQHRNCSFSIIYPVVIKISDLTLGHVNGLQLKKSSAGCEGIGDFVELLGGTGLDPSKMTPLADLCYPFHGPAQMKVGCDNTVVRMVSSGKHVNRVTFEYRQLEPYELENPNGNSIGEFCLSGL

[3] = target: T3, Corticotropin-releasing factor receptor 2/Corticotropin-releasing factor-binding protein; experiment: activators of CRF receptor 2 with binding protein – uHTS hits, confirmation (AID 602473); assay type: functional; conditions: read-out: EC50_Mean
[4] = CRF-BP/CRF-R2 complex antagonists, dose response, cell-based, uHTS hits, 384-well (AID 651639); assay type: functional, Homo sapiens; conditions: read-out: IC50_Mean
[5] = target: T4, Microphthalmia-associated transcription factor (Homo sapiens, UniProt O75030); experiment: TRPM1 promoter luciferase signal decrease, dose response, MITF inhibitor project, cell-based, SK-MEL-5, cherry-picked, set 3 (AID 493073); assay type: functional
T4 sequence (O75030 whole entry): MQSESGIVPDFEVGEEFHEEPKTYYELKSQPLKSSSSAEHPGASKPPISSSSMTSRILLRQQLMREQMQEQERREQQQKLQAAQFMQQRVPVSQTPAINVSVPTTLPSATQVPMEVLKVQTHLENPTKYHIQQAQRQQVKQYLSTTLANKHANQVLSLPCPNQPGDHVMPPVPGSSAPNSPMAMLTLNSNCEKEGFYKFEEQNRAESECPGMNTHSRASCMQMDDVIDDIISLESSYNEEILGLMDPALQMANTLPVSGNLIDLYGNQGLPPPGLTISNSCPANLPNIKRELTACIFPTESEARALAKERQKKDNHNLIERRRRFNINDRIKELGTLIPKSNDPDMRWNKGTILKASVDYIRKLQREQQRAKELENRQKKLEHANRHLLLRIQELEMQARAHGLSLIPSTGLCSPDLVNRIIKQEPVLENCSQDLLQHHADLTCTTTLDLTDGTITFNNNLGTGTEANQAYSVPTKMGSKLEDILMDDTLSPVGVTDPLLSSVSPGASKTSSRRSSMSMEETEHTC

Cytochrome P450 3A4 = Cytochrome P450 3A4 (Homo sapiens, UniProt P08684);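 further: CYP3A4 tested as one member of a cytochrome P450 panel screen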
[6] = test system: Streptococcus sp. 'group A'; experiment: growth inhibition of control SK(-) GAS strain, dose response, counter-screen for streptokinase expression inhibitor project, luminescence, kanamycin, BacTiterGlo, confirmation (AID 1900); assay type: functional, organism-based
Streptokinase A = target: T5, Streptokinase A (Streptococcus pyogenes serotype M1, UniProt P10520); experiment: S. pyogenes streptokinase expression inhibitors, potency, dose response, plasminogen activation absorbance, OD405 (AID 1914); assay type: functional, Streptococcus pyogenes M1 GAS;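 further: secreted streptokinase activity via plasminogen activation per viability signal from cell pellet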
T5 sequence (P10520 whole entry): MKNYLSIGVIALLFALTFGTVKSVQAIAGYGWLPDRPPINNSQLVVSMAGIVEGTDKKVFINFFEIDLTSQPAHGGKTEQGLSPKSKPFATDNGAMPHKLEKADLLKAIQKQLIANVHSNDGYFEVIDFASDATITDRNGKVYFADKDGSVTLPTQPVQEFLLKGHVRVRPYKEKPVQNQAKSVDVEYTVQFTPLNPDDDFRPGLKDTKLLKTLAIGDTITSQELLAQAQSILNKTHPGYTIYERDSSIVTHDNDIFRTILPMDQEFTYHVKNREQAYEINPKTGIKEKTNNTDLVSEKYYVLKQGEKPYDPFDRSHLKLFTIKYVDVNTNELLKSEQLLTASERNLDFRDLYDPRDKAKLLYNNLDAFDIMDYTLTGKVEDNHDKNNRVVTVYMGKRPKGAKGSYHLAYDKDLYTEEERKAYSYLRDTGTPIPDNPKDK

Streptococcus = experiment: Group A Streptococcus viability loss, dose response, counter-screen for streptokinase expression inhibitor project, luminescence, BacTiterGlo (AID 1915); assay type: functional, organism-based;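 further: potency for reduction of bacterial viability or growth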
[7] = target: Heat shock protein HSP 90-alpha (Homo sapiens, UniProt P07900); assay type: functional, organism-based
Vero = Vero cell cytotoxicity, cytotoxicity control for flavivirus capping enzyme inhibitors (AID 588742); assay type: functional; conditions: Chlorocebus sabaeus
INS1 = experiment: beta cell apoptosis inhibitors, cytokine rescue, dose response, luminescence, retest (AID 449756); assay type: functional, cell-based; conditions: Rattus norvegicus;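 further: cell death triggered by IL-1 beta plus TNF-alpha plus IFN-gamma mixture; protective hits raise ATP signal compared with cytokine alone wells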

Cytochrome P450 3A4, sequence (P08684 whole entry): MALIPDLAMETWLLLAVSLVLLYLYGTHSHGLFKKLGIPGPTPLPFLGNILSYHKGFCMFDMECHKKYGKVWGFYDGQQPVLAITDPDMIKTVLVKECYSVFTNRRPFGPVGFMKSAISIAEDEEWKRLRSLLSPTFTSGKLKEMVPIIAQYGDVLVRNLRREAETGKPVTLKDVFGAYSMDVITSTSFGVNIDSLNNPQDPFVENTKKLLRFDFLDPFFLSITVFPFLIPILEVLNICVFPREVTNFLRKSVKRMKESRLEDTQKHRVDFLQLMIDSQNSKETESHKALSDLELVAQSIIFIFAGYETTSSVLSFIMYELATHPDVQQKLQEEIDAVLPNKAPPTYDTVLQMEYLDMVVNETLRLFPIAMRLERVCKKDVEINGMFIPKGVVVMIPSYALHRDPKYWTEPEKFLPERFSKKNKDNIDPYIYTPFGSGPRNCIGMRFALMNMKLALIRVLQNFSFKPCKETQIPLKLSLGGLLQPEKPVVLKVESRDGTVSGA

Which IC50 (Protein skinhead-1) does the source give for COc1cccc(NC(=O)CN2CCc3ccccc3C2)c1 here?
Its IC50 is > 100 µM (inactive).

For Oc1ccc(Br)cc1/C=N/n1c(S)nnc1C1CCCCC1, which AC50 [1] is on record?
The AC50 was 8.32 µM (active).

What does the source list for O=C(c1cccc(S(=O)(=O)N2CCOCC2)c1)N(Cc1ccc(F)cc1)Cc1ccco1?
IC50 [2]: 10.6 µM (active); EC50 [3]: > 53 µM (inactive); IC50 [4]: > 20 µM (inactive)

With COc1cccc(-c2csc3ncnc(Sc4nnnn4C)c23)c1 as the compound, how does the AC50 [5] read?
Its AC50 is 25 µM (active).

For Cc1nc2cc(C(=O)NCc3ccc4c(c3)OCO4)ccc2n1-c1ccc(Br)cc1, which IC50 [2] is on record?
The IC50 was < 0.368 µM (active).

What about the EC50 [3] of the same compound?
Its EC50 is > 53 µM (inactive).

What about the IC50 [4] of the same compound?
Its IC50 is > 20 µM (inactive).

For CC(=O)[C@H]1CC[C@H]2[C@@H]3C=CC4=CC(=O)CC[C@@]4(C)[C@H]3CC[C@]12C, which AC50 (Cytochrome P450 3A4) is on record?
Its AC50 is “inconclusive”.

Which IC50 (Protein skinhead-1) does the source give for O=C(O)c1cnc2ccccc2n1 here?
The IC50 was > 100 µM (inactive).

Which EC50 [6] does the source give for O=C(/C=C/c1cccc([N+](=O)[O-])c1)c1ccc([N+](=O)[O-])o1 here?
Its EC50 is 2.33 µM (active).

What about the EC50 (Streptokinase A) of the same compound?
Its EC50 is > 150 µM (not active).

And the EC50 (Streptococcus)?
Its EC50 is 8.2 µM (active).

What about the AC50 [7] of the same compound?
Its AC50 is 0.557 µM (active).

And the CC50 (Vero)?
The CC50 was 30.7 µM (active).

And the AC50 (INS1)?
The AC50 was 2.18 µM (active).

For CC(C)c1ccc(NC(=O)C(=O)C2C(=O)Nc3ccccc32)cc1 (centres undefined), which AC50 [1] is on record?
Its AC50 is 98.2 µM (active).

Which IC50 (Protein skinhead-1) does the source give for Cc1ccc(-c2ccnc3nc(Sc4ncc(C(F)(F)F)cc4Cl)nn23)cc1 here?
The IC50 was > 100 µM (inactive).
